{
  "source": "patent US20130096189A1",
  "about": "“USE OF GLABRANIN FOR STIMULATING HAIR GROWTH” (priority 2010, published 2013)",
  "tested_on": "Fibroblast cells from the NIH3T3D4 cell line",
  "test": "In-vitro fibroblast cell growth in low serum (colourimetric cell number, Promega CellTiter), with or without potassium channel blockers",
  "type": "cell-based",
  "details": "for Data (absorbance at 450 nM), cell number: 5 days, mean ± SD, 8 replicates",
  "experimental": "The assay described hereinbelow looks at the effect of an active on potentiation of cell growth in a low nutrient environment, ie at the effects of the active on cell growth factors which are mitogenic, rather than on the identification of an active which itself is mitogenic.\nGlabranin (TimTec) was added in 50 μL of dimethylsulphoxide (DMSO) and vortexed to dissolve. […] of the glabranin in DMSO was added to Dulbeccos Minimum Essential Medium (DMEM) containing 2% v/v foetal calf serum (FCS) to give a 10 μg/mL glabranin solution. Serial dilutions were prepared using DMSO/DMEM/FCS as above. 1 mM minoxidil in DMSO/DMEM/FCS as above was used as a positive control. A DMSO control in DMEM containing 2% v/v FCS was also prepared.\nFibroblast cells from the NIH3T3D4 cell line (European collection of animal cell cultures, Health Protection Agency Porton Down, England) were cultured in DMEM media in the absence of antibiotics. The cells were removed using 10 mL of 0.25% w/w trypsin and 0.038% w/v EDTA in Hank's medium for 5 minutes, 10 mL DMEM containing 10% v/v FCS was added and the cells were spun down at 1000 rpm for 2 minutes. After removing the medium the cells were washed in 10 mL of DMEM containing 10% v/v FCS and spun at 1000 rpm for 2 minutes. The cells were then resuspended in 10 mL of DMEM containing 10% v/v FCS and counted using a cell counting chamber. A suspension of cells containing 5000 cells per 100 μL (50,000 cells per mL) was prepared and 100 μL of the cell suspension was plated out into a 96 well plate. The cells were allowed to adhere overnight in an incubator at 37 degrees centigrade in an atmosphere of 5% v/v CO2 in air. After washing the wells thrice with DMEM (without FCS), 100 μL of the test solution (containing […] glabranin per mL DMSO/DMEM/FCS with or without 10 μM glibenclamide (a potassium ion channel blocker) and 0.1 mM tetraethylammonium (TEA is a potassium ion channel blocker which directly binds to the channel) was added to each of eight wells. Fresh media containing glabranin was added every day for 5 days.\nCell numbers were determined after 5 days in test medium using a colourimetric method (Promega CellTiter Reagent from Promega). 20 μL Reagent was added to each well and the plate incubated as before for one hour.",
  "data": [
    {"smiles": "CC(C)=CCc1c(O)cc(O)c2c1O[C@H](c1ccccc1)CC2=O", "note": "[glabranin, (2S)-5,7-dihydroxy-8-(3-methylbut-2-enyl)-2-phenyl-2,3-dihydrochromen-4-one]", "values": [
      {"measurement": "Data (absorbance at 450 nM), cell number", "setting": "glabranin 0.01 μg/ml in 2% FCS/DMSO", "value": "0.34 ± 0.02"},
      {"measurement": "Data (absorbance at 450 nM), cell number", "setting": "glabranin 0.1 μg/ml in 2% FCS/DMSO", "value": "0.34 ± 0.02"},
      {"measurement": "Data (absorbance at 450 nM), cell number", "setting": "glabranin 1 μg/ml in 2% FCS/DMSO", "value": "0.31 ± 0.02"},
      {"measurement": "potassium channel opening leading to fibroblast cell growth (conclusion from table 1)", "setting": "growth increase reversed by potassium channel blockers", "value": "potassium channel opener"}
    ]},
    {"smiles": "Nc1cc(N2CCCCC2)nc(N)[n+]1[O-]", "note": "[Minoxidil, reference compound]", "values": [
      {"measurement": "Data (absorbance at 450 nM), cell number", "setting": "Minoxidil 75 μM in 2% FCS/DMSO", "value": "0.36 ± 0.04"}
    ]}
  ]
}
